# Data from paper PMC7482845, “G10 is a direct activator of human STING” (PLoS ONE, 2020).
# Columns and labels:
# TBK1 = TBK1 (Homo sapiens, UniProt Q9UHD2); experiment: TBK1 kinase assay in the presence of G10; format: biochemical; settings: S1 Table
# [1] = molecular target: R232 STING (R232-HEK293T cells) (Homo sapiens, UniProt Q86WV6, H232R); experiment: Ligand induced change in STING melting temperature, R232-HEK293T whole cells; settings: whole cells (S8 and S9 Figs)
# Method: Two sources of STING (ER fraction of N-His R232.hSTING HEK293T and R232.hSTING HEK293T whole cells) were used for melting temperature experiments. […] (b) 5 x 10^5 R232.hSTING cells were seeded in 24-well plates in 500 μl growth medium and stimulated with serially diluted concentrations of agonist. After 2hr of stimulation cells were harvested through centrifugation and 20 μl cells suspensions were transferred into 0.2 ml PCR-tubes and heated as above. All procedures were identical post-heating of samples. […] Precipitated proteins were separated from the soluble fraction by centrifugation at 21000g for 20 min at 4 °C. Extracted soluble protein was electrophoresed in 10% SDS-PAGE gels and transferred onto Immobilon-P membranes (Millipore). Blots were incubated with antibodies specific for total STING (Cell Signaling).
# [2] = tested on: ligand binding domain of the R232 variant of STING; set-up: method as in PMID 26646986; settings: cited from earlier work
# [3] = molecular target: H232 variant of human STING (Homo sapiens, UniProt Q86WV6); experiment: Luciferase (ISRE.ISG reporter) assay in HEK293T cells stably expressing H232 hSTING; format: cell-based; settings: ISRE.ISG54 luciferase reporter, 18 hours, read-out: estimated EC50, H232 variant
# Source text: • a) Stable STING expressing cells. Stable HEK293T STING-expressing cell lines were generated using plasmids purchased from Invivogen, CA, USA, that contain STING cDNA cloned into the pUNO-1 vector under the hEF1-HTLV promoter as well as the Blasticidin selection cassette. The human STING plasmids corresponding to the R232, H232 and HAQ variants were directly procured from Invivogen while the AQ and Q variants were created by mismatch PCR using cDNA from HAQ.STING and R232.STING variants respectively. These vectors were individually transfected into HEK293T cells using Lipofectamine (Invitrogen) and transfected cells were expanded under Blasticidin selection. These cells were further subjected to clonal selection using the limiting dilution method to obtain clonally pure populations of HEK293T cells expressing each of the five human STING variants. Clones with minimal ligand independent activation of STING were chosen for cellular experiments. • b) N-His R232.hSTING HEK293T cells. […]
# (§1) […] clonally selected HEK293T-hSTING-Luciferase cells or control HEK293T-Luciferase cells were seeded in 384-well plates in growth medium and stimulated with known STING agonists or novel compounds. Supernatants were removed after 20 hours of treatment and secretory reporter gene activity was measured using the Quanti-Luc detection system (Invivogen) on a Spectramax i3X luminometer.
# parent HEK293T cells = experiment: Luciferase assay in parent (control) HEK293T cells without STING; format: cell-based, human; settings: HEK293T cells that do not express STING (S1 Fig)
# Method: as §1
# Sequence of R232 STING (R232-HEK293T cells) (Q86WV6 whole entry H232R, the tested form may be a part): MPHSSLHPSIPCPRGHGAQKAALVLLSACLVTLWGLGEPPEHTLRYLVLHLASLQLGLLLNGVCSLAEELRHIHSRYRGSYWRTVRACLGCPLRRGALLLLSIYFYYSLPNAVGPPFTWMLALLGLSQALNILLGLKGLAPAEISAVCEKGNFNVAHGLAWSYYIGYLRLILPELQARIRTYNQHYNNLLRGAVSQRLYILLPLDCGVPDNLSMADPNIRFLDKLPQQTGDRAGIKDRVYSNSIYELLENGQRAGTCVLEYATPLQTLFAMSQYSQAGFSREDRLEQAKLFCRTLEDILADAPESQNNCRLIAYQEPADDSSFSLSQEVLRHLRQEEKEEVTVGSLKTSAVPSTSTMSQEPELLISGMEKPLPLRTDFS
# Sequence of TBK1 (Q9UHD2 whole entry): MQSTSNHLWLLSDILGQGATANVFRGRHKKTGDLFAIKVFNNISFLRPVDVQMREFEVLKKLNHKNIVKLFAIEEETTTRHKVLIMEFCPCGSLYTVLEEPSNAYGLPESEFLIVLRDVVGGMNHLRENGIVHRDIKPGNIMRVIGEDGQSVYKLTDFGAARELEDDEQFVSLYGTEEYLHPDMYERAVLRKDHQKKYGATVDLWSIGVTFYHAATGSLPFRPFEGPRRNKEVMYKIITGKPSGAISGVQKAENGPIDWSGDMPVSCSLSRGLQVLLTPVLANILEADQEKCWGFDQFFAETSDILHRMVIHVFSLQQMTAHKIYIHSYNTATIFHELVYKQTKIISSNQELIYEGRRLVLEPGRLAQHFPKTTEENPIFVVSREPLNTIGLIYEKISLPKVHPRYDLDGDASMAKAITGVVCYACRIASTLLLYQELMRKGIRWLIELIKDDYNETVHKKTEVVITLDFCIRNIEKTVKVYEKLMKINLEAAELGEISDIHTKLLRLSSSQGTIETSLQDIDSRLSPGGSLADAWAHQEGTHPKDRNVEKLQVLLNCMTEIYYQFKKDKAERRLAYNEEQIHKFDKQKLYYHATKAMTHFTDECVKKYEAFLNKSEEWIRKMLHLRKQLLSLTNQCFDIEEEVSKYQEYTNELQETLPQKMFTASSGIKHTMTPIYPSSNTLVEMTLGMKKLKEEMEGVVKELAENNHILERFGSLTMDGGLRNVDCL
compound,measurement,setting,value
"O=C(NCc1ccco1)c1ccc2c(c1)N(Cc1c(F)cccc1Cl)C(=O)CS2 [Compound G10, 4-(2-Chloro-6-fluorobenzyl)-N-(furan-2-ylmethyl)-3-oxo-3,4-dihydro-2H-benzo[b][1,4]thiazine-6-carboxamide]",effect on TBK-1 enzyme,TBK1,does not inhibit or activate
same,"ligand induced change in STING melting temperature, R232-HEK293T cells",[1],did not demonstrate a significant ligand induced change
same,direct engagement with ligand binding domain of R232 STING (DSF),[2],no evidence of direct engagement
same,EC50,[3],4.3 µM
same,response of parent HEK293T cells (reporter gene expression),parent HEK293T cells,unresponsive
